Assay results as given in patent publication US20100173281A1, “HCV NS3 protease replicon shuttle vectors” (priority 2009, published 2010).
Like-named read-outs stand apart in the source and are kept apart here.

Key:
[1] = tested on: replicon shuttle vector pSC_1b_NS3/Protease_EcoRV_AsiSI in Lunet Huh7 cells; assay: Phenotypic replicon assay (transient replicon, firefly luciferase reporter), control shuttle vector; type: cell-based, HCV; settings: read-out: Mean IC50
Experimental: Phenotypic Replicon Assay
Five micrograms of DNA plasmids were linearized by Sca I restriction enzyme (Roche). After overnight digestion at 37° C., the DNA was purified using Qiagen PCR purification kit. One microgram of linearized DNA was used for the in vitro transcription using T7 RiboMAX Express (Promega) following manufacturer's protocol. After 2 hours of incubation at 37° C., DNase treatment was performed for 30 minutes at 37° C. to remove the DNA template. In vitro transcribed RNA was then purified using RNeasy spin column (Qiagen) following manufacturer's protocol.
The hepatoma Lunet Huh-7 cell line were cultured at 37° C. in a humidified atmosphere with 5% CO2 in Dulbecco's Modified Eagle Medium (DMEM) supplemented with Glutamax™ and […] sodium pyruvate. The medium was further supplemented with 10% (v/v) FBS and 1% (v/v) penicillin/streptomycin. All reagents were from Invitrogen/Gibco.
Four million Lunet Huh7 cells were transfected with 5 μg of in vitro transcribed RNA using electroporation. Cells were then resuspended in 7.2 ml of DMEM containing 5% FBS and plated in 96-well plate at 50000 cells/well (in 90 μl final volume). Inhibitors (when used) were added 24 hours post-transfection in 3 fold dilutions at a final DMSO concentration of 1% and firefly luciferase reporter signal was read 72 hours after addition of inhibitors using the Luciferase Assay system (Promega). The IC50 values were assessed as the inhibitor concentration at which a 50% reduction in the level of firefly luciferase reporter was observed as compared to the level of firefly luciferase signal without the addition of compounds.
The replication capacity of the replicon shuttle vector, pSC—1b_NS3/Protease_EcoRV_AsiSI, as well as those of replicons that contain HCV genotype-1a and genotype-1b patient-derived NS3 protease domains were tested with the luciferase signal as the readout and the results are shown on FIG. 3. The inhibitory effects of the HCV protease inhibitors, BILN2061, VX-950 and NM107 were also tested on these replicons and the results are shown on Table 1.

[2] = tested on: replicons that contain HCV genotype-1b patient-derived NS3 protease domains in Lunet Huh7 cells; assay: Phenotypic replicon assay (transient replicon, firefly luciferase reporter), genotype-1b patient-derived NS3 protease; type: cell-based
[3] = tested on: replicons that contain HCV genotype-1a patient-derived NS3 protease domains in Lunet Huh7 cells; assay: Phenotypic replicon assay (transient replicon, firefly luciferase reporter), genotype-1a patient-derived NS3 protease; type: cell-based
[4] = Hepatitis C virus, Huh-7, read-out: Mean IC50, GT-1b patient sample 206
[5] = Hepatitis C virus, Huh-7, read-out: Mean IC50, GT-1b patient sample 301
[6] = Hepatitis C virus, Huh-7, read-out: Mean IC50, GT-1b patient sample PC232
[7] = Hepatitis C virus, Huh-7, read-out: Mean IC50, GT-1a patient sample RO-191
[8] = Hepatitis C virus, Huh-7, read-out: Mean IC50, GT-1a patient sample RO-192
[9] = Hepatitis C virus, Huh-7, read-out: Mean IC50, GT-1a patient sample RO-193
[10] = Hepatitis C virus, Huh-7, read-out: Mean IC50, GT-1a patient sample RO-194
[11] = Hepatitis C virus, Huh-7, read-out: Mean IC50, GT-1a patient sample RO-195
[12] = Hepatitis C virus, Huh-7, read-out: Mean IC50, GT-1a patient sample RO-207

| SMILES | IC50 ([1]; Hepatitis C virus, Huh-7, 72 h) [nM] | IC50 [2, 4] [nM] | IC50 [2, 5] [nM] | IC50 [2, 6] [nM] | IC50 [3, 7] [nM] | IC50 [3, 8] [nM] | IC50 [3, 9] [nM] | IC50 [3, 10] [nM] | IC50 [3, 11] [nM] | IC50 [3, 12] [nM] | IC50 ([1]; replicon control pSC_1b_NS3/Protease_EcoRV_AsiSI, luciferase read 72 hours after addition of inhibitors) [nM] | IC50 ([2]; GT-1b patient sample 206, read-out: Mean IC50) [nM] | IC50 ([2]; GT-1b patient sample 301, read-out: Mean IC50) [nM] | IC50 ([2]; GT-1b patient sample PC232, read-out: Mean IC50) [nM] | IC50 ([3]; GT-1a patient sample RO-191, read-out: Mean IC50) [nM] | IC50 ([3]; GT-1a patient sample RO-192, read-out: Mean IC50) [nM] | IC50 ([3]; GT-1a patient sample RO-193, read-out: Mean IC50) [nM] | IC50 ([3]; GT-1a patient sample RO-194, read-out: Mean IC50) [nM] | IC50 ([3]; GT-1a patient sample RO-195, read-out: Mean IC50) [nM] | IC50 ([3]; GT-1a patient sample RO-207, read-out: Mean IC50) [nM] |
| --- | --- | --- | --- | --- | --- | --- | --- | --- | --- | --- | --- | --- | --- | --- | --- | --- | --- | --- | --- | --- |
| COc1ccc2c(O[C@@H]3C[C@H]4C(=O)N[C@]5(C(=O)O)C[C@H]5/C=C\CCCCC[C@H](NC(=O)OC5CCCC5)C(=O)N4C3)cc(-c3csc(NC(C)C)n3)nc2c1 [BILN2061] | 0.489 | 0.643 | 0.378 | 0.468 | 0.798 | 0.34 | 0.298 | 0.665 | 0.629 | 0.386 |  |  |  |  |  |  |  |  |  |  |
| C[C@@]1(O)[C@H](O)[C@@H](CO)O[C@H]1n1ccc(N)nc1=O [NM107] |  |  |  |  |  |  |  |  |  |  | 283 | 279 | 279 | 449 | 539 | 554 | 640 | 509 | 312 | 1160 |
| CCC[C@H](NC(=O)[C@@H]1[C@H]2CCC[C@H]2CN1C(=O)[C@@H](NC(=O)[C@@H](NC(=O)c1cnccn1)C1CCCCC1)C(C)(C)C)C(=O)C(=O)NC1CC1 [VX-950] | 0.16 | 0.175 | 0.162 | 0.166 | 0.057 | 0.068 | 0.132 | 0.052 | 0.028 | 0.083 |  |  |  |  |  |  |  |  |  |  |
